Measurements from publication PMC5218480 (PLoS ONE, 2017).

Tested on: MV-4-11 cells
Assay: Gene expression microarray analysis (Affymetrix PrimeView) and GSEA
Type: cell-based, human
Set-up: RFU PODN (11730768_x_at) / Fold change /veh PODN (11730768_x_at) / RFU LINC00158 (11744669_a_at) / Fold change /veh LINC00158 (11744669_a_at) / RFU DUSP10 (11751237_a_at) / Fold change /veh DUSP10 (11751237_a_at) / RFU ID3 (11757404_x_at) / Fold change /veh ID3 (11757404_x_at) / RFU PLEKHG5 (11737974_s_at) / Fold change /veh PLEKHG5 (11737974_s_at) / RFU LRRC4B (11730491_at) / Fold change /veh LRRC4B (11730491_at) / RFU GIMAP4 (11747438_a_at) / Fold change /veh GIMAP4 (11747438_a_at) / RFU KRT8 (11758183_x_at) / Fold change /veh KRT8 (11758183_x_at) / RFU CNN1 (11734310_a_at) / Fold change /veh CNN1 (11734310_a_at) / RFU VPS37D (11726825_at) / Fold change /veh VPS37D (11726825_at) / RFU C10orf10 (11716522_x_at) / Fold change /veh C10orf10 (11716522_x_at) / RFU KIR2DL2 /// KIR2DL4 /// KIR2DL5A /// KIR2DL5B /// KIR2DS1 /// KIR2DS2 /// KIR2DS3 /// KIR2DS4 /// KIR3DL3 /// KIR3DL3 /// KIR3DS1 (11738374_at) / Fold change /veh KIR2DL2 /// KIR2DL4 /// KIR2DL5A /// KIR2DL5B /// KIR2DS1 /// KIR2DS2 /// KIR2DS3 /// KIR2DS4 /// KIR3DL3 /// KIR3DL3 /// KIR3DS1 (11738374_at) / RFU C1QL1 (11718748_at) / Fold change /veh C1QL1 (11718748_at) / RFU TMPRSS4 (11747572_a_at) / Fold change /veh TMPRSS4 (11747572_a_at) / RFU HAMP (11756126_x_at) / Fold change /veh HAMP (11756126_x_at) / RFU RNFT2 (11725882_a_at) / Fold change /veh RNFT2 (11725882_a_at) / RFU NR4A2 (11747474_a_at) / Fold change /veh NR4A2 (11747474_a_at) / RFU ABCC12 (11746883_a_at) / Fold change /veh ABCC12 (11746883_a_at) / RFU TMEM136 (11760407_x_at) / Fold change /veh TMEM136 (11760407_x_at) / RFU CLDN22 /// WWC2 (11732394_at) / Fold change /veh CLDN22 /// WWC2 (11732394_at) / RFU HLA-DPB1 (11760878_x_at) / Fold change /veh HLA-DPB1 (11760878_x_at) / RFU SPINT1 (11716480_a_at) / Fold change /veh SPINT1 (11716480_a_at) / RFU GAP43 (11754022_s_at) / Fold change /veh GAP43 (11754022_s_at) / RFU A4GNT (11735810_at) / Fold change /veh A4GNT (11735810_at) / RFU PRB3 (11715151_x_at) / Fold change /veh PRB3 (11715151_x_at) / RFU TUBB4B (11761932_at) / Fold change /veh TUBB4B (11761932_at) / RFU CAPN14 (11732068_a_at) / Fold change /veh CAPN14 (11732068_a_at) / RFU TMCC2 (11721928_a_at) / Fold change /veh TMCC2 (11721928_a_at) / RFU IRGQ (11745062_a_at) / Fold change /veh IRGQ (11745062_a_at) / RFU FAM174B (11720279_a_at) / Fold change /veh FAM174B (11720279_a_at) / RFU TMPRSS4 (11748680_a_at) / Fold change /veh TMPRSS4 (11748680_a_at) / RFU FAM212B (11763350_a_at) / Fold change /veh FAM212B (11763350_a_at) / RFU PLEKHG5 (11743358_a_at) / Fold change /veh PLEKHG5 (11743358_a_at) / RFU ZSCAN30 (11745921_a_at) / Fold change /veh ZSCAN30 (11745921_a_at) / RFU CMKLR1 (11741424_a_at) / Fold change /veh CMKLR1 (11741424_a_at) / RFU LOC101060620 /// MAPK8IP1 (11723275_at) / Fold change /veh LOC101060620 /// MAPK8IP1 (11723275_at) / RFU SPTSSB (11747773_x_at) / Fold change /veh SPTSSB (11747773_x_at) / RFU PRSS12 (11739890_at) / Fold change /veh PRSS12 (11739890_at) / RFU BIN1 (11741810_x_at) / Fold change /veh BIN1 (11741810_x_at) / RFU WNT11 (11732464_a_at) / Fold change /veh WNT11 (11732464_a_at) / RFU C10orf10 (11716521_a_at) / Fold change /veh C10orf10 (11716521_a_at) / RFU C5orf56 (11738089_at) / Fold change /veh C5orf56 (11738089_at) / RFU CYB561 (11721691_x_at) / Fold change /veh CYB561 (11721691_x_at) / RFU ANKRD19P (11752326_a_at) / Fold change /veh ANKRD19P (11752326_a_at) / RFU OR2T12 /// OR2T33 /// OR2T8 (11738714_s_at) / Fold change /veh OR2T12 /// OR2T33 /// OR2T8 (11738714_s_at) / RFU VCAN (11748164_a_at) / Fold change /veh VCAN (11748164_a_at) / RFU JSRP1 (11732532_at) / Fold change /veh JSRP1 (11732532_at) / RFU KRTAP10-11 (11738290_x_at) / Fold change /veh KRTAP10-11 (11738290_x_at) / RFU MYO3A (11730013_a_at) / Fold change /veh MYO3A (11730013_a_at) / RFU EBF3 (11725865_a_at) / Fold change /veh EBF3 (11725865_a_at) / RFU CAMK2N1 (11719241_x_at) / Fold change /veh CAMK2N1 (11719241_x_at) / RFU C5orf56 (11738088_a_at) / Fold change /veh C5orf56 (11738088_a_at) / RFU OLFML3 (11715873_a_at) / Fold change /veh OLFML3 (11715873_a_at) / RFU LOC100653217 /// NTM (11731650_a_at) / Fold change /veh LOC100653217 /// NTM (11731650_a_at) / RFU MAPK11 (11762145_a_at) / Fold change /veh MAPK11 (11762145_a_at) / RFU FIZ1 (11724087_x_at) / Fold change /veh FIZ1 (11724087_x_at) / RFU OASL (11726364_x_at) / Fold change /veh OASL (11726364_x_at) / RFU SOX15 (11748057_x_at) / Fold change /veh SOX15 (11748057_x_at) / RFU CD79A (11719716_a_at) / Fold change /veh CD79A (11719716_a_at) / RFU HIST1H1D (11736915_at) / Fold change /veh HIST1H1D (11736915_at) / RFU CASKIN2 (11723855_a_at) / Fold change /veh CASKIN2 (11723855_a_at) / RFU LOC730098 (11760151_x_at) / Fold change /veh LOC730098 (11760151_x_at) / RFU OR4N2 (11742367_at) / Fold change /veh OR4N2 (11742367_at) / RFU PRRT2 (11749266_a_at) / Fold change /veh PRRT2 (11749266_a_at) / RFU SNX32 (11753110_a_at) / Fold change /veh SNX32 (11753110_a_at) / RFU CDHR5 (11726645_a_at) / Fold change /veh CDHR5 (11726645_a_at) / RFU RCAN1 (11760418_a_at) / Fold change /veh RCAN1 (11760418_a_at) / RFU FAM167A (11723789_a_at) / Fold change /veh FAM167A (11723789_a_at) / RFU FAM26E (11764081_at) / Fold change /veh FAM26E (11764081_at) / RFU ISYNA1 (11749810_s_at) / Fold change /veh ISYNA1 (11749810_s_at) / RFU ACY1 (11761880_at) / Fold change /veh ACY1 (11761880_at) / RFU 11764098_at / Fold change /veh 11764098_at / RFU SAMD14 (11745864_x_at) / Fold change /veh SAMD14 (11745864_x_at) / RFU NPB (11741838_a_at) / Fold change /veh NPB (11741838_a_at) / RFU TMPRSS6 (11731388_a_at) / Fold change /veh TMPRSS6 (11731388_a_at) / RFU KRTAP10-2 (11738614_at) / Fold change /veh KRTAP10-2 (11738614_at) / RFU ARHGAP8 /// PRR5-ARHGAP8 (11727945_x_at) / Fold change /veh ARHGAP8 /// PRR5-ARHGAP8 (11727945_x_at) / RFU KRTAP5-7 /// NADSYN1 (11734609_at) / Fold change /veh KRTAP5-7 /// NADSYN1 (11734609_at) / RFU RASL12 (11751679_a_at) / Fold change /veh RASL12 (11751679_a_at) / RFU CDKN2B (11736163_a_at) / Fold change /veh CDKN2B (11736163_a_at) / RFU PRF1 (11729649_at) / Fold change /veh PRF1 (11729649_at) / RFU, ZNF638 /// ZNF638-IT1 / Fold change vs veh, ZNF638 /// ZNF638-IT1 / RFU, PANK3 / Fold change vs veh, PANK3 / RFU, SH3YL1 / Fold change vs veh, SH3YL1 / RFU, ZEB2 / Fold change vs veh, ZEB2 / RFU, NRIP1 / Fold change vs veh, NRIP1 / RFU, PTTG1IP / Fold change vs veh, PTTG1IP / RFU, CAPN2 / Fold change vs veh, CAPN2 / RFU, MED14 / Fold change vs veh, MED14 / RFU, SNORA58 / Fold change vs veh, SNORA58 / RFU, C1orf63 / Fold change vs veh, C1orf63 / RFU, LRRFIP1 / Fold change vs veh, LRRFIP1 / RFU, NDUFAF7 / Fold change vs veh, NDUFAF7 / RFU, SLC12A2 / Fold change vs veh, SLC12A2 / RFU, IBTK / Fold change vs veh, IBTK / RFU, ESF1 / Fold change vs veh, ESF1 / Fold change vs veh, TMEM50B / RFU, TAOK1 / Fold change vs veh, TAOK1 / RFU, ACBD3 / Fold change vs veh, ACBD3 / RFU, TMA16 / Fold change vs veh, TMA16 / RFU, RWDD3 / Fold change vs veh, RWDD3 / RFU, BCAT1 / Fold change vs veh, BCAT1 / RFU, EDEM3 / Fold change vs veh, EDEM3 / RFU, TMEM33 / Fold change vs veh, TMEM33 / RFU, WDR75 / Fold change vs veh, WDR75 / RFU, AHCTF1 / Fold change vs veh, AHCTF1 / RFU, TFRC / Fold change vs veh, TFRC / RFU, ZDHHC17 / Fold change vs veh, ZDHHC17 / RFU, NOM1 / Fold change vs veh, NOM1 / RFU, ARL8B / Fold change vs veh, ARL8B / RFU, ZBTB11 / Fold change vs veh, ZBTB11 / RFU, TAMM41 / Fold change vs veh, TAMM41 / RFU, KIAA1704 /// LOC100996395 / Fold change vs veh, KIAA1704 /// LOC100996395 / RFU, ING1 / Fold change vs veh, ING1 / RFU, TRMT61B / Fold change vs veh, TRMT61B / RFU, FUBP3 / Fold change vs veh, FUBP3 / RFU, TP53 / Fold change vs veh, TP53 / RFU, TNKS2 / Fold change vs veh, TNKS2 / RFU, ZFP14 / Fold change vs veh, ZFP14 / RFU, ACTR2 / Fold change vs veh, ACTR2 / RFU, PPP3R1 / Fold change vs veh, PPP3R1 / RFU, PIK3R1 / Fold change vs veh, PIK3R1 / RFU, HNRNPA1 / Fold change vs veh, HNRNPA1 / RFU, RNF170 / Fold change vs veh, RNF170 / RFU, ZNF28 / Fold change vs veh, ZNF28 / RFU, RNGTT / Fold change vs veh, RNGTT / RFU, OGT / Fold change vs veh, OGT / RFU, BRD1 / Fold change vs veh, BRD1 / RFU, MARS / Fold change vs veh, MARS / RFU, ZNF655 / Fold change vs veh, ZNF655 / RFU, FAHD1 / Fold change vs veh, FAHD1 / RFU, BDP1 / Fold change vs veh, BDP1 / RFU, LRRCC1 / Fold change vs veh, LRRCC1 / RFU, ARID1A / Fold change vs veh, ARID1A / RFU, ZNF146 / Fold change vs veh, ZNF146 / RFU, ZNF330 / Fold change vs veh, ZNF330 / RFU, GPN3 / Fold change vs veh, GPN3 / RFU, C9orf123 / Fold change vs veh, C9orf123 / RFU, N4BP2L2 / Fold change vs veh, N4BP2L2 / RFU, ARFIP1 / Fold change vs veh, ARFIP1 / RFU, FAM179B / Fold change vs veh, FAM179B / RFU, BCL10 / Fold change vs veh, BCL10 / RFU, UHRF1BP1L / Fold change vs veh, UHRF1BP1L / RFU, BET1 / Fold change vs veh, BET1 / RFU, CNOT2 / Fold change vs veh, CNOT2 / RFU, ZNF268 / Fold change vs veh, ZNF268 / Fold change vs veh, ZNF507 / RFU, DGCR2 / Fold change vs veh, DGCR2 / RFU, WDSUB1 / Fold change vs veh, WDSUB1 / Fold change vs veh, HSP90B1 /// MIR3652 / RFU, ADSS / Fold change vs veh, ADSS / RFU, GK / Fold change vs veh, GK / RFU, ZNF148 / Fold change vs veh, ZNF148 / RFU, TAF9 / Fold change vs veh, TAF9 / RFU, SLC1A5 / Fold change vs veh, SLC1A5 / RFU, SLMO2 / Fold change vs veh, SLMO2 / RFU, ABCC4 / Fold change vs veh, ABCC4 / RFU, LOC101060439 /// RAP1B / Fold change vs veh, LOC101060439 /// RAP1B / RFU, RFX7 / Fold change vs veh, RFX7 / RFU, GTPBP10 / Fold change vs veh, GTPBP10 / RFU, CNEP1R1 / Fold change vs veh, CNEP1R1 / RFU, BIVM-ERCC5 /// ERCC5 / Fold change vs veh, BIVM-ERCC5 /// ERCC5 / RFU, ILF3 / Fold change vs veh, ILF3 / RFU 11762660_at / Fold change /veh 11762660_at / RFU VCAN (11757783_s_at) / Fold change /veh VCAN (11757783_s_at) / RFU DDX43 (11728927_at) / Fold change /veh DDX43 (11728927_at) / RFU KRT8 (11758188_x_at) / Fold change /veh KRT8 (11758188_x_at) / RFU NKD1 (11759106_at) / Fold change /veh NKD1 (11759106_at) / RFU SRD5A1 (11742802_a_at) / Fold change /veh SRD5A1 (11742802_a_at) / RFU TPSAB1 /// TPSB2 (11721975_s_at) / Fold change /veh TPSAB1 /// TPSB2 (11721975_s_at) / RFU GSTM3 (11746129_a_at) / Fold change /veh GSTM3 (11746129_a_at) / RFU IL23R (11737362_x_at) / Fold change /veh IL23R (11737362_x_at) / RFU TMEM51 (11727254_a_at) / Fold change /veh TMEM51 (11727254_a_at) / RFU PIWIL2 (11732686_x_at) / Fold change /veh PIWIL2 (11732686_x_at) / RFU ORM1 (11744905_x_at) / Fold change /veh ORM1 (11744905_x_at) / RFU CCDC152 (11743942_at) / Fold change /veh CCDC152 (11743942_at) / RFU ECM1 (11717891_a_at) / Fold change /veh ECM1 (11717891_a_at) / RFU IL23R (11748794_a_at) / Fold change /veh IL23R (11748794_a_at) / RFU TNFAIP8L3 (11732012_x_at) / Fold change /veh TNFAIP8L3 (11732012_x_at) / RFU MBOAT4 (11741988_at) / Fold change /veh MBOAT4 (11741988_at) / RFU 11764193_at / Fold change /veh 11764193_at / RFU TMEM53 (11763286_at) / Fold change /veh TMEM53 (11763286_at) / RFU MAGEB2 (11727129_at) / Fold change /veh MAGEB2 (11727129_at) / RFU TMEM200A (11744735_a_at) / Fold change /veh TMEM200A (11744735_a_at) / RFU CCDC152 (11751479_a_at) / Fold change /veh CCDC152 (11751479_a_at) / RFU FAM211A (11726209_a_at) / Fold change /veh FAM211A (11726209_a_at) / RFU RGS16 (11746705_a_at) / Fold change /veh RGS16 (11746705_a_at) / RFU VCAN (11755009_s_at) / Fold change /veh VCAN (11755009_s_at) / RFU RHOB (11743442_s_at) / Fold change /veh RHOB (11743442_s_at) / RFU RGS16 (11720943_a_at) / Fold change /veh RGS16 (11720943_a_at) / RFU RGS16 (11720944_at) / Fold change /veh RGS16 (11720944_at) / RFU, VPS4B / Fold change vs veh, VPS4B / RFU, CREB1 / Fold change vs veh, CREB1 / RFU, DNAJC13 / Fold change vs veh, DNAJC13 / RFU, GNAQ / Fold change vs veh, GNAQ / RFU, CDK5R1 / Fold change vs veh, CDK5R1 / RFU, ZRANB3 / Fold change vs veh, ZRANB3 / RFU, CUL4A / Fold change vs veh, CUL4A / RFU, CCNY / Fold change vs veh, CCNY / RFU, UFL1 / Fold change vs veh, UFL1 / RFU, COG3 / Fold change vs veh, COG3 / RFU, DIAPH2 / Fold change vs veh, DIAPH2 / RFU, SKA2 / Fold change vs veh, SKA2 / RFU, AFF3 / Fold change vs veh, AFF3 / RFU, LMF1 / Fold change vs veh, LMF1 / RFU, IPO11 / Fold change vs veh, IPO11 / RFU, DFFB / Fold change vs veh, DFFB / RFU, FOXP1 / Fold change vs veh, FOXP1 / RFU, CARD8 / Fold change vs veh, CARD8 / RFU, STRN3 / Fold change vs veh, STRN3 / RFU, ADK / Fold change vs veh, ADK / RFU, RASSF2 / Fold change vs veh, RASSF2 / RFU, WIPF1 / Fold change vs veh, WIPF1 / RFU, LARP1B / Fold change vs veh, LARP1B / RFU, RASA1 / Fold change vs veh, RASA1 / RFU, RB1 / Fold change vs veh, RB1 / RFU, PPFIA1 / Fold change vs veh, PPFIA1 / RFU, MAT2A / Fold change vs veh, MAT2A / RFU, CCT5 / Fold change vs veh, CCT5 / RFU, WDR92 / Fold change vs veh, WDR92 / RFU, CUX1 / Fold change vs veh, CUX1 / RFU, TTC7A / Fold change vs veh, TTC7A / RFU, TMEM135 / Fold change vs veh, TMEM135 / RFU, DEPTOR / Fold change vs veh, DEPTOR / RFU, CPM / Fold change vs veh, CPM / RFU, DNAJB6 / Fold change vs veh, DNAJB6 / RFU, CACNA2D3 / Fold change vs veh, CACNA2D3 / RFU, DTX4 / Fold change vs veh, DTX4 / RFU, TFCP2 / Fold change vs veh, TFCP2 / RFU, GMCL1 /// GMCL1P1 / Fold change vs veh, GMCL1 /// GMCL1P1 / RFU, AEBP2 / Fold change vs veh, AEBP2 / RFU, SNHG1 /// SNORD22 /// SNORD25 /// SNORD26 /// SNORD27 /// SNORD28 /// SNORD29 /// SNORD31 / Fold change vs veh, SNHG1 /// SNORD22 /// SNORD25 /// SNORD26 /// SNORD27 /// SNORD28 /// SNORD29 /// SNORD31 / Fold change (Aza/veh), C12orf56 (ProbeSet 11735607_a_at) / Fold change (ACY-1035/veh), C12orf56 (ProbeSet 11735607_a_at) / Fold change (Aza/veh), FGFR1OP (ProbeSet 11751329_s_at) / Fold change (ACY-1035/veh), FGFR1OP (ProbeSet 11751329_s_at) / Fold change (Aza/veh), VPS36 (ProbeSet 11739960_a_at) / Fold change (ACY-1035/veh), VPS36 (ProbeSet 11739960_a_at) / RFU SYPL1 (11715823_x_at) / Fold change /veh SYPL1 (11715823_x_at) / RFU IGFBP7 (11715501_s_at) / Fold change /veh IGFBP7 (11715501_s_at) / RFU REEP3 (11722064_at) / Fold change /veh REEP3 (11722064_at) / RFU IGLL1 (11728026_x_at) / Fold change /veh IGLL1 (11728026_x_at): dose or concentration left out as unconfirmed
Conditions: ProbeSet 11754362_a_at; LIST D

## Nc1ccc(-c2cccs2)cc1NC(=O)c1ccc2c(c1)cc(C1CC1)n2CCN1CCOCC1 [ACY-1035]
  RFU, TTC7A: 150.96 RFU
